We go through 32 compounds from ChEMBL document CHEMBL3137381, “MMV Box Onchocerca lienalis screening set”.

Molecules are shown by their SMILES.

Holding throughout (type): functional
Experiment [1] deals with Onchocerca lienalis. Put plainly: MMV: Percent motility assay at a compound concentration of 1.25e-5 M. Activity score legend: 3: Active, 2: Moderately active; 1: Inactive, 0: Toxic. To be noted: at 12.5 µM.
Experiment [2] deals with Onchocerca lienalis. Nature of the experiment: MMV: Percent motility assay at a compound concentration of 3.1e-6 M. Activity score legend: 3: Active, 2: Moderately active; 1: Inactive, 0: Toxic. To be noted: at 3.1 µM.
Experiment [3] relates to Onchocerca lienalis. Put plainly: MMV: Percent motility assay at a compound concentration of 1.9e-7 M. Activity score legend: 3: Active, 2: Moderately active; 1: Inactive, 0: Toxic. The settings on record: at 0.19 µM.
Experiment [4] concerns Onchocerca lienalis. Nature of the experiment: MMV: Percent motility assay at a compound concentration of 7.8e-7 M. Activity score legend: 3: Active, 2: Moderately active; 1: Inactive, 0: Toxic. The settings on record: at 0.78 µM.

For the compound `COc1ccc2c(c1)C1(Nc3ccccc3-c3nc4ccccc4n31)C(=O)N2` (stereo not drawn), the Motility in the experiment on Onchocerca lienalis [1], with Onchocerca lienalis [2], in the experiment on Onchocerca lienalis [3] and with Onchocerca lienalis [4] was 100% in each case.
Take `CCOc1c(Cl)cc(CNCC(O)c2ccccc2)cc1OC` (stereo not drawn): the Motility with Onchocerca lienalis [1], in the experiment with Onchocerca lienalis [2], in the experiment with Onchocerca lienalis [3] and in the experiment on Onchocerca lienalis [4] was 100% each time.
For `OC(CNCC1CCCO1)Cn1c2ccc(Cl)cc2c2cc(Cl)ccc21` (stereo not drawn), the Motility in the experiment with Onchocerca lienalis [1], in the experiment with Onchocerca lienalis [2], in the experiment on Onchocerca lienalis [3] and with Onchocerca lienalis [4] was 100% each time.
Regarding `COc1ccc2nc(C)cc(Nc3ccccc3O)c2c1`, the Motility in the experiment on Onchocerca lienalis [1], with Onchocerca lienalis [2], in the experiment on Onchocerca lienalis [3] and in the experiment with Onchocerca lienalis [4] was 100% in each case.
Take `CCn1nc(-c2ccc(C(=O)OC)cc2)nc2c(=O)n(C)c(=O)nc1-2`: the Motility with Onchocerca lienalis [1], with Onchocerca lienalis [2], with Onchocerca lienalis [3] and in the experiment with Onchocerca lienalis [4] was 100% each time.
For `CC1(c2ccccc2)Nc2ccccc2-c2nc3ccccc3n21` (stereo not drawn), the Motility with Onchocerca lienalis [1], with Onchocerca lienalis [2], in the experiment with Onchocerca lienalis [3] and in the experiment on Onchocerca lienalis [4] was 100% throughout.
Consider `CC(C)(C)CC(C)(C)NCC(O)COc1ccc(Cl)cc1Cl` (stereo not drawn), for which the Motility in the experiment on Onchocerca lienalis [1], in the experiment with Onchocerca lienalis [2], in the experiment on Onchocerca lienalis [3] and in the experiment with Onchocerca lienalis [4] was 100% throughout.
On to `O=C(Nc1ccc(Br)cc1)Nc1cccc(Cl)c1`, for which the Motility in the experiment with Onchocerca lienalis [1], in the experiment on Onchocerca lienalis [2], with Onchocerca lienalis [3] and in the experiment on Onchocerca lienalis [4] was 100% in each case.
On to `COc1ccc2nc(C)cc(Nc3ccc(Cl)cc3)c2c1`, for which the Motility amounted to 0% in the experiment with Onchocerca lienalis [1], 100% in the experiment on Onchocerca lienalis [2], 100% in the experiment with Onchocerca lienalis [3] and 100% in the experiment on Onchocerca lienalis [4].
`CCC(O)c1ccc(Br)cc1NC(=O)c1cccc(Cl)c1` (stereo not drawn): the Motility in the experiment on Onchocerca lienalis [1], in the experiment with Onchocerca lienalis [2], in the experiment with Onchocerca lienalis [3] and in the experiment with Onchocerca lienalis [4] was 100% in each case.
`Cc1sc2ncnc(Sc3nc4ccccc4[nH]3)c2c1C`: the Motility in the experiment on Onchocerca lienalis [1], in the experiment on Onchocerca lienalis [2], with Onchocerca lienalis [3] and in the experiment on Onchocerca lienalis [4] was 100% each time.
For the compound `O=C(Nc1ccc(CN2CCOCC2)cc1)c1ccc(-c2cc(Cl)ccc2Cl)o1`, the Motility with Onchocerca lienalis [1], in the experiment on Onchocerca lienalis [2], with Onchocerca lienalis [3] and in the experiment on Onchocerca lienalis [4] was 100% each time.
Take `Cc1cc(Nc2cccc(F)c2)nc(NCc2ccccc2)n1`: the Motility with Onchocerca lienalis [1] is 33.33%; in the experiment on Onchocerca lienalis [2], 100%; in the experiment with Onchocerca lienalis [3], 100%; in the experiment with Onchocerca lienalis [4], 100%.
For the compound `COCCn1c(C)nc2ccccc2c1=O`, the Motility in the experiment on Onchocerca lienalis [1], in the experiment on Onchocerca lienalis [2], with Onchocerca lienalis [3] and with Onchocerca lienalis [4] was 100% each time.
Consider `O=C(Nc1cccc(-c2nc3ccccc3[nH]2)c1)c1cccc(NC(=O)c2ccco2)c1`, for which the Motility in the experiment with Onchocerca lienalis [1], with Onchocerca lienalis [2], in the experiment on Onchocerca lienalis [3] and in the experiment with Onchocerca lienalis [4] was 100% throughout.
Regarding `O=C(NC1CCN(Cc2ccccc2)CC1)c1cc(-c2cccnc2)nc2ccc(Cl)cc12`, the Motility with Onchocerca lienalis [1], in the experiment on Onchocerca lienalis [2], in the experiment on Onchocerca lienalis [3] and with Onchocerca lienalis [4] was 100% throughout.
For the compound `COc1ccc(-c2nonc2NC(=O)c2cccc(Cl)c2)cc1OC`, the Motility with Onchocerca lienalis [1], in the experiment with Onchocerca lienalis [2], in the experiment with Onchocerca lienalis [3] and in the experiment with Onchocerca lienalis [4] was 100% in each case.
Turning to `Cc1cc(NC(=O)c2ccc(-c3ccccc3)cc2)no1`, the Motility in the experiment on Onchocerca lienalis [1], in the experiment on Onchocerca lienalis [2], in the experiment on Onchocerca lienalis [3] and in the experiment with Onchocerca lienalis [4] was 100% in each case.
`CCOc1cc2c(cc1OCC)C(c1cc(C)c(O)c(C)c1)NCC2.Cl` (stereo not drawn): the Motility with Onchocerca lienalis [1], in the experiment on Onchocerca lienalis [2], in the experiment on Onchocerca lienalis [3] and in the experiment on Onchocerca lienalis [4] was 100% throughout.
Consider `O=C1CC(O)(C(F)(F)C(F)(F)F)Oc2ccccc21` (stereo not drawn), for which the Motility in the experiment on Onchocerca lienalis [1], with Onchocerca lienalis [2], with Onchocerca lienalis [3] and with Onchocerca lienalis [4] was 100% each time.
Turning to `COc1cc(SC)ccc1C(=O)N1CCCC(C)C1` (stereo not drawn), the Motility in the experiment with Onchocerca lienalis [1], in the experiment with Onchocerca lienalis [2], in the experiment with Onchocerca lienalis [3] and in the experiment with Onchocerca lienalis [4] was 100% each time.
As for `CC(C)c1ccc(CNCC(O)c2ccccc2)cc1.Cl` (stereo not drawn), the Motility with Onchocerca lienalis [1], with Onchocerca lienalis [2], with Onchocerca lienalis [3] and with Onchocerca lienalis [4] was 100% each time.
As for `Cc1ccc(NC(=O)Nc2cccc(Cl)c2)cc1F`, the Motility in the experiment on Onchocerca lienalis [1], in the experiment with Onchocerca lienalis [2], in the experiment on Onchocerca lienalis [3] and in the experiment with Onchocerca lienalis [4] was 100% each time.
Take `O=c1nc(C=Cc2ccc(Cl)cc2)oc2ccccc12`: the Motility in the experiment on Onchocerca lienalis [1], with Onchocerca lienalis [2], in the experiment with Onchocerca lienalis [3] and in the experiment with Onchocerca lienalis [4] was 100% in each case.
In the case of `O=C(NCc1ccco1)C1CCN(S(=O)(=O)c2ccc(Br)cc2)CC1`, the Motility with Onchocerca lienalis [1], with Onchocerca lienalis [2], with Onchocerca lienalis [3] and in the experiment on Onchocerca lienalis [4] was 100% in each case.
For the compound `CN(C)c1ccc(N2C(N)=NC(N)=NC2(C)C)cc1`, the Motility in the experiment on Onchocerca lienalis [1], in the experiment on Onchocerca lienalis [2], with Onchocerca lienalis [3] and in the experiment with Onchocerca lienalis [4] was 100% throughout.
`COc1ccc(Nc2nc(NCc3ccccc3)c3ccccc3n2)cc1`: the Motility is reported as 33.33% in the experiment with Onchocerca lienalis [1], 100% with Onchocerca lienalis [2], 100% in the experiment with Onchocerca lienalis [3] and 100% with Onchocerca lienalis [4].
`COc1cc2c(cc1OC)C1=NNC(=O)C1=NC(C)(C)C2`: the Motility in the experiment with Onchocerca lienalis [1], in the experiment with Onchocerca lienalis [2], in the experiment with Onchocerca lienalis [3] and in the experiment on Onchocerca lienalis [4] was 100% in each case.
For `CCCCc1c(C)nc2c(OC)cccc2c1O`, the Motility in the experiment on Onchocerca lienalis [1], in the experiment with Onchocerca lienalis [2], in the experiment on Onchocerca lienalis [3] and in the experiment on Onchocerca lienalis [4] was 100% throughout.
As to `CCOC(=O)C1CCN(C(=O)CN2C(=O)c3ccccc3C2c2c[nH]c3ccccc23)CC1` (stereo not drawn), the Motility in the experiment on Onchocerca lienalis [1], with Onchocerca lienalis [2], in the experiment on Onchocerca lienalis [3] and with Onchocerca lienalis [4] was 100% each time.
Turning to `CCOc1ccc(CCNC(=O)c2cccs2)cc1OCC`, the Motility in the experiment with Onchocerca lienalis [1], in the experiment with Onchocerca lienalis [2], with Onchocerca lienalis [3] and in the experiment on Onchocerca lienalis [4] was 100% in each case.
With `Cc1c(C)n(CC(O)CNC2CCCCC2C)c2ccccc12` (stereo not drawn), the Motility in the experiment with Onchocerca lienalis [1], in the experiment with Onchocerca lienalis [2], in the experiment with Onchocerca lienalis [3] and with Onchocerca lienalis [4] was 100% throughout.
